# Reference: article PMC12492669, “Malic enzyme-based system for transhydrogenation between nicotinamide cofactors” (Synthetic and Systems Biotechnology, 2025)
# Target: T1, ME (NAD-dependent malic enzyme); ME∗ (ME mutant with L310R/Q401C) (Escherichia coli, UniProt P26616)
# T1 construct: gene maeA; recombinant from E. coli BL21(DE3), pET24b-ME, Ni-NTA purified; 64 kDa
# Test: malate oxidative decarboxylation, absorbance at […] nm
# Format: biochemical
# Details: 0.5 mM NCD, 5 mM malate, 2 mM MgCl2, 50 mM HEPES pH 7.5; weak
# T1 sequence (P26616 whole entry, stated change not applied): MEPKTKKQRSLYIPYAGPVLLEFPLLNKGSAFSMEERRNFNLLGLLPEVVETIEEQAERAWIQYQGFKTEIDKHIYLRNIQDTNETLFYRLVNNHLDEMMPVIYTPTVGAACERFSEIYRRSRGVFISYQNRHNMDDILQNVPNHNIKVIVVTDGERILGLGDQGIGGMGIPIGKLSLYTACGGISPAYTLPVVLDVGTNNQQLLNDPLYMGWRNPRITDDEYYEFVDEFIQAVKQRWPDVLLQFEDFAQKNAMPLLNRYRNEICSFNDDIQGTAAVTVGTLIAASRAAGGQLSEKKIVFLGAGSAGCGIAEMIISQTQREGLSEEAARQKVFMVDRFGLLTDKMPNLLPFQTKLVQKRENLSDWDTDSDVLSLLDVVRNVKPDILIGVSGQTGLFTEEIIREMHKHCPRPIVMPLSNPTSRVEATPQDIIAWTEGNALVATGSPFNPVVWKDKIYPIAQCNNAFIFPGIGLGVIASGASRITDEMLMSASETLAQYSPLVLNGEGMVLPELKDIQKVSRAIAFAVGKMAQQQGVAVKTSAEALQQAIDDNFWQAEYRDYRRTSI
smiles,measurement,value
NC(=O)c1ccc[n+]([C@@H]2O[C@H](COP(=O)([O-])OP(=O)(O)OC[C@H]3O[C@@H](n4ccc(N)nc4=O)[C@H](O)[C@@H]3O)[C@@H](O)[C@H]2O)c1 [NCD],"malate oxidative decarboxylation, absorbance at 340 nm",ME exhibited the highest activity towards NAD and weak activity towards NCD and NADP
